Assay results: patent publication US20260077055A1, “COMPOSITIONS OF POLYPLEXES AND SAPONINS” (SAPREME TECHNOLOGIES B.V., priority 2022, published 2026)

Tests used:
EGFR-A2058 cells = test: Cell viability (MTS) after polyplex transfection of A2058 cells; type: cell-based; conditions: co-administered with PAMAM G5(PEG-N3)6.2 npSaporin polyplexes; 73 nM Cetuximab-SO1861 or 4 μM SO1861-EMCH; 72 h
Experimental: Spectrophotometry: Concentrations were determined using either a Thermo Nanodrop 2000 spectrometer or Perkin Elmer Lambda 365 Spectrophotometer. DLS measurements: DLS measurements were performed on a Malvern Nano ZS (Malvern Instruments, U.K.), operating at 633 nm with a 173° scattering angle, at 25 or 37° C. DLS mean diameters were obtained from the intensity particle size distribution provided by Malvern Zetasizer Software. DLS histograms were obtained from the intensity particle size distributions. […] Infrared Spectroscopy: FT-IR spectra were recorded on a Bruker Vertex 70v, equipped with a RockSolid interferometer, after preparing the samples (1-2 mg) as KBr pellets. […] NMR Spectroscopy: 1H NMR spectra were recorded on a 11.7 T Bruker DRX-500 spectrometer. […] Experiments were recorded acquiring 64-512 scans, with a pre-scan delay (d1) of 12 s, and an acquisition time (aq) of 4 s at 300 K. 13C NMR spectrum was recorder on a 9.39 T Varian Innova 400 spectrometer. […] After treatment, the cells were incubated for 72 hr at 37° C. before the cell viability was determined by a MTS-assay performed according to the manufacturer's instruction (CellTiter 96® AQueous One Solution Cell Proliferation Assay, Promega). […]

EGFR+ A431 cells = test: Cell viability (MTS) after polyplex transfection of A431 cells; type: cell-based
Experimental: Spectrophotometry: Concentrations were determined using either a Thermo Nanodrop 2000 spectrometer or Perkin Elmer Lambda 365 Spectrophotometer. DLS measurements: DLS measurements were performed on a Malvern Nano ZS (Malvern Instruments, U.K.), operating at 633 nm with a 173° scattering angle, at 25 or 37° C. DLS mean diameters were obtained from the intensity particle size distribution provided by Malvern Zetasizer Software. DLS histograms were obtained from the intensity particle size distributions. Zeta-potential: The zeta-potential values of the polyplexes were obtained by laser doppler anemometry (LDA), measuring the mean electrophoretic mobility (Malvern Zetasizer Nano ZS, Malvern Instruments, U.K.). Measurements were performed in 10 mM HEPES pH 7.1, 150 mM NaCl. TEM measurements: TEM measurements were performed on a JEOL JEM-1011 operated at 100 kV electron microscope, equipped with a camera S5 MegaView G2. A drop of a solution of polyplexes (0.1 mg/mL) was settled on a PELCO® TEM carbon type-B film copper grid and allowed to dry at room temperature for 1 h. Infrared Spectroscopy: FT-IR spectra were recorded on a Bruker Vertex 70v, equipped with a RockSolid interferometer, after preparing the samples (1-2 mg) as KBr pellets. Spectra were processed using OPUS 7.8 software (Bruker). NMR Spectroscopy: 1H NMR spectra were recorded on a 11.7 T Bruker DRX-500 spectrometer. Chemical shifts are reported in ppm (o units) downfield from the HOD residual solvent peak (CD3OD). Experiments were recorded acquiring 64-512 scans, with a pre-scan delay (d1) of 12 s, and an acquisition time (aq) of 4 s at 300 K. 13C NMR spectrum was recorder on a 9.39 T Varian Innova 400 spectrometer. MestReNova 14.2 software (Mestrelab Research) was used for spectra processing. Cell culture conditions and treatments: HEK293FT, A431, A2058, Neuro2A, Hepa1-6 and MDA-MB 468 were maintained in 10% FBS-supplemented DMEM medium (PAN-Biotech GmbH, or Lonza Group, Basel, Switzerland)+Pen/Strep at 37° C. with 5% CO2. […] SO1861-EMCH was conjugated into/onto these polyplexes or co-administrated at 966 or 4000 nM to the different cell lines in vitro (as indicated). For this, cells were seeded in a 96 well plate at 5.000-10.000 c/w in 100 μL/well and incubated overnight at 37° C. Before treatment, the mAb-SO1861 and polyplexes were diluted separately in DPBS (PAN-Biotech GmbH) to 10× the required final concentration. The cells received 80 μL/well fresh media, followed by 20 μL/well polyplex solution and 20 μL/well saponin solution. In particular, before K16-polyplex treatments, K16-polyplexes were formulated in 10 mM HEPES, incubated for 30 min at room temperature and then diluted with complete cell culture medium. The complete cell culture medium was exchanged against 100 μL transfection medium. For co-administration of SO1861-EMCH, the transfection medium was supplemented with 2 μg/mL (=966 nM) SO1861-EMCH. Control transfections were performed with Lipofectamine™ 3000 Transfection Reagent (Thermo Fisher Scientific) according to the manufacturer's instruction, using either […] or 100 ng plasmid and with a media change 4-5 hrs after transfection. […] After treatment, the cells were incubated for 72 hr at 37° C. before the cell viability was determined by a MTS-assay performed according to the manufacturer's instruction (CellTiter 96® AQueous One Solution Cell Proliferation Assay, Promega). […]

Compound: CC(=O)OC1C(C)OC(OC2C(C)OC(OC(=O)[C@]34CCC(C)(C)CC3C3=CCC5[C@@]6(C)CC[C@H](OC7OC(C(=O)O)C(O)C(OC8OCC(O)C(O)C8O)C7OC7OC(CO)C(O)C(O)C7O)[C@@](C)(/C=N/NC(=O)CCCCCN7C(=O)C=CC7=O)C6CC[C@@]5(C)[C@]3(C)C[C@H]4O)C(OC3OC(C)C(OC4OCC(O)C(OC5OC(CO)C(O)C(O)C5O)C4O)C(O)C3O)C2O)C(O)C1OC1OCC(O)C(O)C1O (stereo partly drawn) [SO1861-EMCH]
- cytoplasmic delivery of npSaporin / cell killing (EGFR-A2058 cells): strongly enhanced the cytoplasmic delivery of npSaporin
- cell killing activity / saporin gene delivery, K16C npSaporin polyplexes (EGFR+ A431 cells; K16C alone up to about 5000 μM of plasmids (printed), SO1861-EMCH = free, co-administered with K16C-polyplexes): enhanced cell killing activity
- cytoplasmic delivery of npSaporin / cell killing (EGFR+ A431 cells; co-administered with PAMAM G5(PEG-N3)6.2 npSaporin polyplexes, 73 nM Cetuximab-SO1861 or 4 μM SO1861-EMCH, 72 h): strongly enhanced the cytoplasmic delivery of npSaporin
